The source of these data is the OligoGym collection.

Bases are written 5' to 3'; sugars and linkages follow in the same order, as letters with counts (s phosphorothioate, o phosphodiester; PS: all linkages phosphorothioate). C may stand for cytosine or 5-methylcytosine; the collection does not tell. l = locked nucleic acid (LNA); d = 2'-deoxy (DNA)

This data set has as its target HIF1A. As to the kind of experiment: HeLa, 100 nM transfected, 24 h, mean of 3. The conditions noted are these: ASO.
Sequence “GTTACTGCCTTCTTAC (sugars ldllldddddddlddl, PS)” yielded a caspase activation (% of PBS control) of 461. In turn, “GTTACTGCCTTCTTAC (sugars l2 d9 l1 d3 l1, PS)” gave a caspase activation (% of PBS control) of 107.

For TACTGCCTTCTTA (sugars l3 d8 l2, PS), the caspase activation (% of PBS control) is 317.

In turn, TGGCAAGCATCCTGTA (sugars l3 d10 l3, PS) showed a caspase activation (% of PBS control) of 273.

Consider “TTACTGCCTTCTT (sugars l2 d1 l1 d7 l2, PS)”, for which the caspase activation (% of PBS control) worked out at 202. Then “ACTGCCTTCTTAC (sugars lldlddddddldl, PS)”, with 146; and “GTTACTGCCTTCT (sugars l3 d7 l1 d1 l1, PS)”, with 161. Then “TGGCAAGCATCCTGTA (sugars l1 d2 l1 d7 l5, PS)”, with 416; and “TGGCAAGCATCCT (sugars l1 d1 l1 d7 l3, PS)”, with 127; and “GTTACTGCCTTCTTAC (sugars lddldddddddlddll, PS)”, with 129.

In turn, “TGGCAAGCATCCTGTA (sugars ldldlddddddllddl, PS)” showed a caspase activation (% of PBS control) of 219. Next, “TGGCAAGCATCCTGTA (sugars l1 d3 l1 d7 l4, PS)”: 235; “TGGCAAGCATCCTGTA (sugars l1 d11 l1 d2 l1, PS)”: 190; “GTTACTGCCTTCT (sugars l2 d1 l1 d8 l1, PS)”: 133. Next, “TTACTGCCTTCTT (sugars l4 d6 l1 d1 l1, PS)”: 308. “GTTACTGCCTTCTTAC (sugars l2 d1 l1 d7 l5, PS)” showed a caspase activation (% of PBS control) of 335. In turn, “TGGCAAGCATCCTGTA (sugars l3 d8 l3 d1 l1, PS)” registered a caspase activation (% of PBS control) of 449.

Take “GTTACTGCCTTCTTAC (sugars l1 d2 l2 d10 l1, PS)”: the caspase activation (% of PBS control) amounted to 185. Then GCAAGCATCCTGT (sugars l3 d7 l3, PS), with 600; and “TGGCAAGCATCCTGTA (sugars lddllddddddlldll, PS)”, with 388; and TACTGCCTTCTTA (sugars l4 d7 l2, PS), with 594. For “GTTACTGCCTTCTTAC (sugars lddldddddddldddl, PS)”, the caspase activation (% of PBS control) is 88.6.

In the case of “TGGCAAGCATCCTGTA (sugars llldldddddddlldl, PS)”, the caspase activation (% of PBS control) was determined as 367. Then GGCAAGCATCCTG (sugars l2 d10 l1, PS), with 291. The sequence “GTTACTGCCTTCTTAC (sugars ldlllddddddllddl, PS)” registered a caspase activation (% of PBS control) of 499. For “GTTACTGCCTTCTTAC (sugars l5 d7 l2 d1 l1, PS)”, the caspase activation (% of PBS control) was 515. Next, “TGGCAAGCATCCTGTA (sugars l1 d1 l1 d8 l5, PS)”: 417; “GTTACTGCCTTCTTAC (sugars l1 d3 l1 d9 l2, PS)”: 103; “TGGCAAGCATCCTGTA (sugars ldldldddddddlldl, PS)”: 218. Then “GTTACTGCCTTCT (sugars ldllddddddldl, PS)”, with 156; and “GTTACTGCCTTCTTAC (sugars l1 d2 l1 d7 l5, PS)”, with 268; and “TGGCAAGCATCCTGTA (sugars l5 d6 l1 d2 l2, PS)”, with 399. In the case of “GTTACTGCCTTCTTAC (sugars lldldddddddldddl, PS)”, the caspase activation (% of PBS control) was found to be 155.

In the case of TGGCAAGCATCCT (sugars l2 d8 l3, PS), the caspase activation (% of PBS control) turned out to be 315. The sequence “TGGCAAGCATCCTGTA (sugars l5 d7 l1 d2 l1, PS)” came in with a caspase activation (% of PBS control) of 386.

Sequence ACTGCCTTCTTAC (sugars l4 d6 l3, PS) had a caspase activation (% of PBS control) of 410. Next, “TGGCAAGCATCCTGTA (sugars l1 d3 l1 d10 l1, PS)”: 146; “GTTACTGCCTTCTTAC (sugars lldldddddddlddll, PS)”: 161; “TGGCAAGCATCCTGTA (sugars l4 d8 l1 d1 l2, PS)”: 385.

As for “TGGCAAGCATCCTGTA (sugars llldlddddddldldl, PS)”, the caspase activation (% of PBS control) is 350. On to “GTTACTGCCTTCTTAC (sugars lldldddddddlldll, PS)”, for which the caspase activation (% of PBS control) was determined as 163.

“GTTACTGCCTTCTTAC (sugars lddlddddddddlldl, PS)”: the caspase activation (% of PBS control) was found to be 177. Then “TGGCAAGCATCCTGTA (sugars ldlllddddddlddll, PS)”, with 410. GTTACTGCCTTCTTAC (sugars l5 d6 l5, PS) returned a caspase activation (% of PBS control) of 624. Next, “TGGCAAGCATCCTGTA (sugars l1 d11 l2 d1 l1, PS)”: 231.

Regarding “TACTGCCTTCTTA (sugars l2 d1 l1 d6 l3, PS)”, the caspase activation (% of PBS control) came out at 427. Then “GTTACTGCCTTCTTAC (sugars ldlddddddddldlll, PS)”, with 155; and ACTGCCTTCTTAC (sugars l2 d8 l3, PS), with 209; and “TGGCAAGCATCCTGTA (sugars l1 d2 l2 d10 l1, PS)”, with 367.

“TGGCAAGCATCCT (sugars l4 d6 l1 d1 l1, PS)” yielded a caspase activation (% of PBS control) of 480. Then “TGGCAAGCATCCTGTA (sugars ldllldddddddlddl, PS)”, with 419; and “TGGCAAGCATCCTGTA (sugars l1 d10 l1 d2 l2, PS)”, with 261; and TGGCAAGCATCCTGTA (sugars l4 d7 l5, PS), with 414. As to “TGGCAAGCATCCTGTA (sugars l2 d2 l1 d8 l3, PS)”, the caspase activation (% of PBS control) turned out to be 397. With “TGGCAAGCATCCTGTA (sugars ldlddddddddddldl, PS)”, the caspase activation (% of PBS control) amounted to 147. In turn, “ACTGCCTTCTTAC (sugars l2 d1 l1 d6 l3, PS)” yielded a caspase activation (% of PBS control) of 166. Sequence “TGGCAAGCATCCTGTA (sugars l5 d8 l1 d1 l1, PS)” registered a caspase activation (% of PBS control) of 401. Then TACTGCCTTCTTA (sugars l1 d11 l1, PS), with 112. With GTTACTGCCTTCT (sugars l4 d6 l3, PS), the caspase activation (% of PBS control) worked out at 356. Take “CAAGCATCCTGTA (sugars l1 d1 l1 d8 l2, PS)”: the caspase activation (% of PBS control) came out at 171. Next, “TGGCAAGCATCCTGTA (sugars ldldlddddddldldl, PS)”: 175. Next, “GCAAGCATCCTGT (sugars l1 d1 l1 d7 l3, PS)”: 239. On to “TGGCAAGCATCCTGTA (sugars l4 d8 l2 d1 l1, PS)”, for which the caspase activation (% of PBS control) amounted to 425. Take “TGGCAAGCATCCTGTA (sugars l1 d1 l3 d7 l4, PS)”: the caspase activation (% of PBS control) came to 395. Next, “GTTACTGCCTTCTTAC (sugars l3 d1 l1 d7 l4, PS)”: 324; GGCAAGCATCCTG (sugars l3 d8 l2, PS): 642.

Sequence “GTTACTGCCTTCTTAC (sugars ldlllddddddddldl, PS)” came in with a caspase activation (% of PBS control) of 438.

“GTTACTGCCTTCTTAC (sugars ldldlddddddddlll, PS)” had a caspase activation (% of PBS control) of 214. “GTTACTGCCTTCTTAC (sugars lddldddddddldlll, PS)” gave a caspase activation (% of PBS control) of 154. “TGGCAAGCATCCTGTA (sugars l2 d2 l1 d7 l4, PS)” showed a caspase activation (% of PBS control) of 366. With “GTTACTGCCTTCTTAC (sugars lddldddddddddldl, PS)”, the caspase activation (% of PBS control) amounted to 121. TACTGCCTTCTTA (sugars l4 d8 l1, PS) came in with a caspase activation (% of PBS control) of 435. “GTTACTGCCTTCTTAC (sugars l3 d8 l3 d1 l1, PS)” returned a caspase activation (% of PBS control) of 360.

Sequence “TGGCAAGCATCCTGTA (sugars ldlddddddddldldl, PS)” registered a caspase activation (% of PBS control) of 206.

As to “TGGCAAGCATCCTGTA (sugars lddlddddddddldll, PS)”, the caspase activation (% of PBS control) stood at 371. Then “TTACTGCCTTCTT (sugars l1 d9 l1 d1 l1, PS)”, with 127. For TGGCAAGCATCCTGTA (sugars l1 d13 l2, PS), the caspase activation (% of PBS control) turned out to be 170. Next, “TGGCAAGCATCCTGTA (sugars l2 d2 l1 d9 l2, PS)”: 391.

TGGCAAGCATCCTGTA (sugars l1 d10 l5, PS) registered a caspase activation (% of PBS control) of 480. Then TTACTGCCTTCTT (sugars l4 d6 l3, PS), with 396. Next, “TGGCAAGCATCCTGTA (sugars l1 d2 l2 d6 l5, PS)”: 366; “CAAGCATCCTGTA (sugars l2 d1 l1 d6 l3, PS)”: 119; “GTTACTGCCTTCTTAC (sugars ldlddddddddlddll, PS)”: 130. For the sequence “GTTACTGCCTTCTTAC (sugars llldldddddddlddl, PS)”, the caspase activation (% of PBS control) was 277. Next, “GTTACTGCCTTCTTAC (sugars llldlddddddldddl, PS)”: 272; “GTTACTGCCTTCTTAC (sugars llddlddddddlddll, PS)”: 193; “ACTGCCTTCTTAC (sugars l3 d7 l1 d1 l1, PS)”: 383. “TGGCAAGCATCCTGTA (sugars ldlllddddddllddl, PS)” returned a caspase activation (% of PBS control) of 495.

CAAGCATCCTGTA (sugars l3 d8 l2, PS) returned a caspase activation (% of PBS control) of 302.
